Test results published in patent publication US20250188410A1, “NICOTINAMIDE ADENINE DINUCLEOTIDE (NAD+) PRECURSORS, NAD PATHWAY SUBSTRATES COMPOSITIONS AND USES THEREOF” (Colossal Biosciences Inc., priority 2023, published 2025).
“And” between values parts separate entries of the source, which are not always exact repeats. Equal entries are not always repeated.

Experiments:
bovine embryos [1] = assay: Early embryo development of bovine embryos in IVC medium supplemented with NAD+ precursor (Experiment 1); type: cell-based
Description: The NAD^+ precursors […] (NMN) or Nicotinic acid […] (NA) (SG; Sigma N7764) were supplemented into in vitro culture medium (BO-IVC; IVF Biosciences), and bovine embryos obtained by in vitro fertilization (IVF) or parthenogenetic activation (PA) were cultured for 7-14 days in air controlled atmosphere (5% CO2 and 5% O2) at 38.5° C. Embryo development was evaluated at day 3 (D3-cleavage rate), day 7 (D7−Blastocyst rate), and day 11 (D11−Hatching rate). In addition, the expansion of hatched blastocysts from day 11-13 was evaluated. Based on this testing (see in Experiment 1 below) suitable dosages of NAD^+ precursors were identified.
Different doses of NMN (125 to 1000 μM) were added to the IVC culture medium containing bovine embryos for up to 14 days. No effect of NAD^+ precursor presence was observed on the cleavage or blastocyst rates for all three replicates (see FIG. 1, FIG. 2A, FIG. 2B, and FIG. 3).

[2] = IVM or embryo culture media supplemented with NMN; cited from earlier work
bovine embryos [3] = assay: Attachment rate of embryos at day 11 of culture on MEFs in bEPSCM (Experiment 2); type: cell-based
bovine embryos [4] = assay: Presumptive bESC colonies at day 25 by Alkaline Phosphatase staining (bESC derivation); type: cell-based; details: for number of presumptive bESC colonies (increase): IVF and PA groups, supplementation during the first seven days; for number of presumptive bESC colonies (increase) / # colonies per cm^2 / Average (# colonies per cm^2) / Fold vs Control (presumptive bESC colonies): day 25; for # colonies per cm^2 / Average (# colonies per cm^2) / Fold vs Control (presumptive bESC colonies) / Number of AP+ Colonies: IVF; for Number of AP+ Colonies: day 25, 12 well plate
Description: (§1) After identifying the NAD^+ precursor dosage, experiment 2 was performed. Embryos were cultured in in vitro culture medium (BO-IVC; IVF Biosciences) supplemented with NA or NMN for 7-14 days in air controlled atmosphere (5% CO2 and 5% O2) at 38.5° C. Embryos cultured with NAD^+ precursor were collected at the blastocyst stage (D7) and plated in co-culture with irradiated mouse embryonic fibroblast (MEF) and bovine ESCs medium ([…]) until day 25 for bovine ESCs Derivation: Timeline bESC Derivation: • D0-D7 Incubation of IVF-produced embryos in IVC supplemented with NAD^+ precursor for seven days. • D7 Plating of embryos for ESC derivation on medium […] on Cf1 MEF. Treatment with Y27632 for last 12 hours of culturing. • D14 Mechanically isolate the ICM and transfer to a new plate. […] NMN and Nicotinic Acid (NA, also known as Niacin) were used as the NAD^+ precursors in this experiment. On day 7 of supplementation, blastocysts were collected and plated on MEFs in a […] medium.

bovine embryos [5] = assay: Measurement of ICM and outgrowths for day 14 embryos before ICM isolation; type: cell-based; details: IVF embryos
Description: as §1

bovine embryos [6] = assay: as above; type: cell-based; details: PA embryos
bovine embryos [7] = assay: Presumptive bESC colonies at day 25 by Alkaline Phosphatase staining (bESC derivation); type: cell-based; details: PA, replicate 1, 5 seed embryos; for # colonies per cm^2 / Average (# colonies per cm^2) / Fold vs Control (presumptive bESC colonies): day 25; for Number of AP+ Colonies: day 25, 12 well plate

| number of presumptive bESC colonies (increase) (bovine embryos [4]) | Compound | % Attached (bovine embryos [3]; IVF embryos) [%] | Fold vs Control (attachment rate) (bovine embryos [3]; IVF embryos) | % Attached (bovine embryos [3]; PA embryos) [%] | Fold vs Control (attachment rate) (bovine embryos [3]; PA embryos) | # colonies per cm^2 (bovine embryos [4]; replicate 1, 1 seed embryo) | Average (# colonies per cm^2) (bovine embryos [4]; replicate 1, 1 seed embryo) | Fold vs Control (presumptive bESC colonies) (bovine embryos [4]; replicate 1, 1 seed embryo) | Number of AP+ Colonies (bovine embryos [4]; replicate 1, 1 seed embryo) | # colonies per cm^2 (bovine embryos [4]; replicate 2, 5 seed embryos) | Average (# colonies per cm^2) (bovine embryos [4]; replicate 2, 5 seed embryos) | Fold vs Control (presumptive bESC colonies) (bovine embryos [4]; replicate 2, 5 seed embryos) | Number of AP+ Colonies (bovine embryos [4]; replicate 2, 5 seed embryos) | AVG Fold (ICM/outgrowth) (bovine embryos [5]) | AVG ICM (bovine embryos [5]) [μm] | AVG Outgrowth (bovine embryos [5]) [μm] | AVG Fold (ICM/outgrowth) (bovine embryos [6]) | AVG ICM (bovine embryos [6]) [μm] | AVG Outgrowth (bovine embryos [6]) [μm] | # colonies per cm^2 (bovine embryos [7]) | other results |
| --- | --- | --- | --- | --- | --- | --- | --- | --- | --- | --- | --- | --- | --- | --- | --- | --- | --- | --- | --- | --- | --- |
| increased by three times | NC(=O)c1ccc[n+]([C@@H]2O[C@H](COP(=O)([O-])O)[C@@H](O)[C@H]2O)c1 [NMN, nicotinamide mononucleotide] | 100 | 1.33 | 60 | 3 | 11.14 and 16.29 and 10.86 | 12.76 | 0.6979 | 39 and 57 and 38 | 16.29 | 16.29 | 1.583 | 57 | 0.1124 | 58.38 | 645.2 | 0.1845 | 47.2 | 458.5 | 12 | cleavage rate (bovine embryos [1]; NMN 125 to 1000 μM in IVC culture medium, day 3, three replicates): No effect; blastocyst rate (bovine embryos [1]; NMN 125 to 1000 μM in IVC culture medium, day 7, three replicates): No effect; morphology of hatched blastocysts (bovine embryos [1]; supplementation in IVC, day 11 to day 13): beneficially impact; maturation or embryo development [2]: no effect; Average (# colonies per cm^2) (bovine embryos [7]): 12; Fold vs Control (presumptive bESC colonies) (bovine embryos [7]): 2.333; Number of AP+ Colonies (bovine embryos [7]): 42 |
| increased by three times | O=C(O)c1cccnc1 [NA, nicotinic acid (pyridine-3-carboxylic acid), reference compound] | 100 | 1.33 | 60 | 3 | 82 and 72.29 and 8 | 54.1 | 2.958 | 287 and 253 and 28 | 33.43 | 33.43 | 3.25 | 117 | 0.09417 | 76.27 | 905.9 | 0.1303 | 48.9 | 436.7 | 15.14 | Average (# colonies per cm^2) (bovine embryos [7]): 15.14; Fold vs Control (presumptive bESC colonies) (bovine embryos [7]): 2.944; Number of AP+ Colonies (bovine embryos [7]): 53 |
